Tests used:
[1] = test system: RAW 264.7 cells; assay: Suppressive activity for NO production induced by LPS (NO2- in medium); assay type: cell-based; details: compound a 1.5, 3, 6, 12 μM; compound b 3, 6, 12, 24 μM; LPS 15 hours
Protocol: RAW 264.7 cells (ATCC TIB 71) were suspended in Dulbecco's modified Eagle's medium (manufactured by Bio Whittaker, 12-604F) containing 10% fetal bovine serum (manufactured by GIBCO), so as to have a concentration of 4×10^5 cells/ml, and the suspension was put to each well of a 48-well microtiter plate in an amount of 500 μl per well. The cells were cultured at 37° C. in the presence of 5% carbon dioxide gas. After 24 hours, the medium was exchanged with Dulbecco's modified Eagle's medium (manufactured by Bio Whittaker, 12-917F) containing 10% fetal bovine serum (manufactured by GIBCO), 2 mM L-glutamine (manufactured by Life Tech Oriental Co., Ltd., 25030-149) without containing phenol red. The compound a (dimethyl sulfoxide solution) was added to each well so as to have a concentration of 1.5, 3, 6, or 12 μM, or the compound b (dimethyl sulfoxide solution) was added to each well so as to have a concentration of 3, 6, 12, or 24 μM. […] Thereafter, the concentration of NO2^− which was produced by oxidation of NO in the medium was determined. […] Thereafter, absorbance at 540 nm was determined. The concentration of NO2 − in the medium was calculated from a calibration curve prepared from known concentrations of NaNO2. […]

[2] = test system: RAW 264.7 cells; assay: Suppressive activity for IL-6 production induced by LPS (sandwich enzyme immunoassay); assay type: cell-based; details: compound a 1.5, 3, 6, 12 μM; compound b 3, 6, 12, 24 μM; LPS 15 hours
Protocol: RAW 264.7 cells (ATCC TIB 71) were suspended in Dulbecco's modified Eagle's medium (manufactured by Bio Whittaker, 12-604F) containing 10% fetal bovine serum (manufactured by GIBCO) so as to have a concentration of 4×10^5 cells/ml, and the suspension was put to each well of a 48-well microtiter plate in an amount of 500 μl per well. The cells were cultured at 37° C. in the presence of 5% carbon dioxide gas. After 24 hours, the medium was exchanged with Ultra CHO medium (manufactured by Bio Whittaker, 12-724Q). The compound a (dimethyl sulfoxide solution) was added to each well so as to have a concentration of 1.5, 3, 6, or 12 μM, or the compound b (dimethyl sulfoxide solution) was added to each well so as to have a concentration of 3, 6, 12, or 24 μM. After additional 4 hours of culture, a 100 μg/ml aqueous lipopolysaccharide (LPS, manufactured by Sigma, L-2010) solution was added to each well in an amount of 5 μl per well, and the cells were cultured for 15 hours. Thereafter, the supernatant of the medium was collected. The content of interleukin 6 (IL-6) in the supernatant of the medium was determined with a sandwich enzyme immunoassay (manufactured by genzyme TECHNE, 4922). In addition, there were set a group without addition of the compounds a and b as a positive control, and a group without addition of LPS as a negative control. All of the determinations were carried out twice. […]

[3] = target: T1, aldose reductase derived from human muscle cells (Homo sapiens, UniProt P15121); assay: Inhibitory activity for aldose reductase (NADPH absorbance at 340 nm, methylglyoxal substrate); assay type: biochemical
T1 construct: purchased Wako Pure Chemical Industries
Protocol: (1) Inhibitory activities for aldose reductase of the compounds a and b were measured by the following method. Twenty microliters of 100 mM methylglyoxal was added to 10 μl of the compound a or b (dissolved in a 50% aqueous dimethyl sulfoxide solution) as a sample, 100 μl of 0.2 M phosphate buffer (pH 6.2), 20 μl of 1 mM NADPH (phosphate buffer), 10 μl of a solution of aldose reductase derived from human muscle cells (0.1 U/ml, manufactured by Wako Pure Chemical Industries, phosphate buffer). After 30 seconds passed, change in absorbance of NADPH at 340 nm was determined for 180 seconds. A 50% aqueous dimethyl sulfoxide solution was used as a negative control in place of the sample. In addition, the absorbance was determined using distilled water as a blank of each sample in place of the methylglyoxal solution. The found values are expressed as an average of the values in two experimental values. The inhibitory ratio (%) for aldose reductase was calculated in accordance with the following formula. Inhibitory Ratio (%)=[1-[(ΔAs−ΔAsb)/(ΔAc−ΔAcb)]]×100
Here, ΔAs and ΔAc are changes in absorbance per 1 minute of a sample solution, and a negative control solution, respectively, and ΔAsb and ΔAcb are changes in absorbance per 1 minute of blank of a sample solution, and a negative control solution, respectively.

[4] = test system: PC12 cells (CRL-1721) derived from rat adrenal medulla pheochromocytoma, differentiated into neuron-like cells; assay: Neuronal protection from NO toxicity (SNP) in NGF-differentiated PC12 cells, MTT; assay type: cell-based; details: 10 μM compound b, 50 μM SNP, 48 hours, control without compound and SNP = 100, SNP alone 59.1
Protocol: (1) The suppressive activity for NO toxicity of the compound b was assayed in accordance with the following method. PC12 cells (CRL-1721) derived from rat adrenal medulla pheochromocytoma were suspended in DMEM medium (manufactured by Bio Whittaker) containing 10% fetal bovine serum (manufactured by Bio Whittaker) so as to have a concentration of 1×10^5 cells/ml. The suspension was put in each well of a 96-well plate in an amount of 0.1 ml per well, and the cells were cultured at 37° C. in the presence of 5% carbon dioxide gas. After the cells were cultured for 24 hours, the medium was removed and exchanged with DMEM medium containing 10 ng/ml of NGF (manufactured by TAKARA BIO Inc.) and 10% fetal bovine serum. PC12 cells were cultured for 3 days, and differentiated into neuron-like cells. After the culture, the medium was removed and exchanged with DMEM medium containing 10 μM of the compound b, 10 ng/ml of NGF, and 10% fetal bovine serum. […] Solubilized formazan was determined at a wavelength of 590 nm (control wavelength of 630 nm). […] Viability ratio (%) of cells was calculated from MTT found values of each test group by defining the MTT value of the control group (group not containing the compound b and SNP) as 100.

[5] = test system: PC12 cells derived from rat adrenal medulla pheochromocytoma; assay: Suppressive activity for NO toxicity (SNP) in PC12 cells, MTT; assay type: cell-based; details: 10 μM compound b, 50 μM SNP, 66 hours, control without compound and SNP = 100, SNP alone 48.1
Protocol: (2) The suppressive activity of the compound b for NO toxicity was assayed in accordance with the following method. PC12 cells derived from rat adrenal medulla pheochromocytoma were suspended in DMEM medium containing 10% fetal bovine serum so as to have a concentration of 1.5×10^5 cells/ml. The suspension was put to each well of a 96-well plate in an amount of 0.1 ml per well, and cultured at 37° C. in the presence of 5% carbon dioxide gas. After 24 hours of culture, the medium was removed, and exchanged with DMEM medium containing 10 μM of the compound b and 10% fetal bovine serum. After the cells were cultured for 2 hours, SNP was added thereto so as to have a concentration of 50 μM, and the cells were cultured for 66 hours. After the termination of the culture, the MTT determination was carried out in the same manner as in item (1) of Example 4, and the viability ratio (%) of cells was calculated. All of the determinations were carried out three times.

Inhibitory Ratio (%) for Aldose Reductase ([3]; final concentration 2.5 μM) [%] | Inhibitory Ratio (%) for Aldose Reductase ([3]; final concentration 5 μM) [%] | Inhibitory Ratio (%) for Aldose Reductase ([3]; final concentration 10 μM) [%] | Inhibitory Ratio (%) for Aldose Reductase ([3]; final concentration 20 μM) [%] | SMILES | Suppression of induction for NO production by LPS (NO2- concentration in medium, FIG. 7) [1] | Inhibition of induction of IL-6 production by LPS (IL-6 in supernatant, FIG. 8) [2] | Viability Ratio (%) of Cells [4] [%] | Viability Ratio (%) of Cells [5] [%]
33.3 | 48.4 | 65.7 | 77.2 | CC12CCC(O)C(C)(C)C1Cc1c(O)ccc(C(=O)/C=C/c3ccc(O)cc3)c1O2 (single isomer, unassigned) [Compound a, (E)-1-(5,6,7,8,8a,10a-hexahydro-1,7-dihydroxy-8,8,10a-trimethyl-9H-xanthen-4-yl)-3-(4-hydroxyphenyl)-2-propen-1-one] | supppressed the induction for NO production by LPS in a concentration-dependent manner | inhibited the induction of IL-6 production by LPS in a concentration-dependent manner | – | –
35.1 | 50.6 | 66.8 | 79.1 | CC(C)=CCCC1(C)Oc2c(C(=O)/C=C/c3ccc(O)cc3)ccc(O)c2CC1O (single isomer, unassigned) [Compound b, (E)-1-(3,4,-dihydro-3,5-dihydroxy-2-(3-isohexeneyl)-2-methyl-2H-1-benzopyran-8-yl)-3-(4-hydroxyphenyl)-2-propene-1-one] | supppressed the induction for NO production by LPS in a concentration-dependent manner | inhibited the induction of IL-6 production by LPS in a concentration-dependent manner | 87.4 | 91.0
